Measurements reported in ChEMBL document CHEMBL4725300, “Structure optimization of positive allosteric modulators of GABA receptors led to the unexpected discovery of antagonists/potential negative allosteric modulators” (Bioorg Med Chem Lett, 2020).

Columns and labels:
Assay type in all cases: cell membranes
Rattus norvegicus [1] = species on record: Rattus norvegicus; assay: Negative allosteric modulation of GABAB receptor in Sprague-Dawley rat brain cortex membrane assessed as decrease in [35S]GTPgammaS binding for 30 mins; details: Cerebral cortex, filed as negative allosteric modulator
Rattus norvegicus [2] = species on record: Rattus norvegicus; assay: Antagonist activity at GABAB receptor in Sprague-Dawley rat brain cortex membrane assessed as decrease in 10 uM GABA-stimulated [35S]GTPgammaS binding at 2.5 uM incubated for 30 mins relative to GABA; design: scale not given: the % may be the effect or the level left; details: Cerebral cortex, filed as antagonist
Rattus norvegicus [3] = species on record: Rattus norvegicus; assay: Antagonist activity at GABAB receptor in Sprague-Dawley rat brain cortex membrane assessed as decrease in 10 uM GABA-stimulated [35S]GTPgammaS binding at 25 uM incubated for 30 mins relative to GABA; design: scale not given: the % may be the effect or the level left; details: Cerebral cortex, filed as antagonist
Rattus norvegicus [4] = species on record: Rattus norvegicus; assay: Negative allosteric modulation of GABAB receptor in Sprague-Dawley rat brain cortex membrane assessed as decrease in [35S]GTPgammaS binding at 2.5 uM incubated for 30 mins relative to control; design: scale not given: the % may be the effect or the level left; details: Cerebral cortex, filed as negative allosteric modulator
Rattus norvegicus [5] = species on record: Rattus norvegicus; assay: Negative allosteric modulation of GABAB receptor in Sprague-Dawley rat brain cortex membrane assessed as decrease in [35S]GTPgammaS binding at 25 uM incubated for 30 mins relative to control; design: scale not given: the % may be the effect or the level left; details: Cerebral cortex, filed as negative allosteric modulator
Rattus norvegicus [6] = species on record: Rattus norvegicus; assay: Antagonist activity at GABAB receptor in Sprague-Dawley rat brain cortex membrane assessed as decrease in 10 uM GABA-stimulated [35S]GTPgammaS binding incubated for 30 mins; details: Cerebral cortex, filed as antagonist
Rattus norvegicus [7] = species on record: Rattus norvegicus; assay: Agonist activity at GABAB receptor in Sprague-Dawley rat brain cortex membrane assessed as decrease in 10 uM GABA-stimulated [35S]GTPgammaS binding at 25 uM incubated for 30 mins; design: scale not given: the % may be the effect or the level left; details: Cerebral cortex, filed as agonist
Rattus norvegicus [8] = species on record: Rattus norvegicus; assay: Agonist activity at GABAB receptor in Sprague-Dawley rat brain cortex membrane assessed as decrease in 10 uM GABA-stimulated [35S]GTPgammaS binding at 2.5 uM incubated for 30 mins; design: scale not given: the % may be the effect or the level left; details: Cerebral cortex, filed as agonist

SMILES	Activity (Rattus norvegicus [1])	Activity (Rattus norvegicus [2])	Activity (Rattus norvegicus [3])	Activity (Rattus norvegicus [4])	Activity (Rattus norvegicus [5])	Activity (Rattus norvegicus [6])	Activity (Rattus norvegicus [7])	Activity (Rattus norvegicus [8])
CCCn1c(=O)c(C)c(O)c2cc(OC)ccc21	Dose-dependent effect	4.3%	7.4%	5%	10.5%			
CSc1ncc(-c2nc(C)no2)c(NC2CCCC2)n1	Dose-dependent effect	10.3%	19%	19%	33.3%	Dose-dependent effect		
CCCCCn1c(=O)c(C(C)C)c(O)c2cc(C(C)C)ccc21	Dose-dependent effect	7%	24.4%	9%	37.7%	Dose-dependent effect		
CC(C)c1ccc2c(c1)c(O)c(C(C)C)c(=O)n2CC(C)(C)C	Dose-dependent effect	2%		3.2%	13.8%		2.6%	
Cn1c(Sc2ccc(Cl)cc2)nc(-c2ccc(C(C)(C)C)cc2)cc1=O	Dose-dependent effect	8.2%	3.1%	4%	9.7%			
CC(C)Cn1c(=O)c(C(C)C)c(O)c2cc(C(C)(C)C)ccc21	Dose-dependent effect	15.3%	36.2%	23%	50.7%	Dose-dependent effect		
CC(C)c1c(O)c2cc(C(C)(C)C)ccc2n(CC(C)(C)C)c1=O	Dose-dependent effect		6.3%	2%	22.7%			1.7%
Cn1c(Sc2ccccc2)nc(-c2ccccc2)cc1=O	Dose-dependent effect	1.6%	4.7%	4.7%	9.7%			
CC(C)c1c(O)nc(-c2ccccc2)n(Cc2ccccc2)c1=O		5.2%	8%	2.3%	13%			
CCOC(=O)c1cnc(SC)nc1NC1CCCC1	Dose-dependent effect	10.3%	5.7%	25%	29.3%			
Cc1c(O)nc(-c2ccccc2)n(Cc2ccccc2)c1=O		5.7%	6.2%	3.3%	8.3%			
CSc1ncc(-c2nnc(C)o2)c(NC2CCCC2)n1	Dose-dependent effect	17.1%	19%	25.3%	37.7%			
CC(C)Cn1c(=O)c(C(C)C)c(O)c2cc(C(C)C)ccc21	Dose-dependent effect	13.5%	41.5%	8.7%	41.5%	Dose-dependent effect		
O=c1cc(O)nc(-c2ccccc2)n1Cc1ccccc1		0.9%	12.4%	2.4%	14%			
O=c1cc(-c2ccccc2)nc(Sc2ccccc2)[nH]1	Dose-dependent effect	4.7%	6.1%	3.3%	7.3%			
CCOC(=O)c1cnc(-n2nc(C)cc2C)nc1NC1CCCC1	Dose-dependent effect	14.4%	40.8%	18.3%	44.7%	Dose-dependent effect		
O=c1cc(-c2ccccc2)nc(Sc2ccc(Cl)cc2)[nH]1	Dose-dependent effect	4.9%	7.4%	8.7%	14.7%			
Cn1c(Sc2ccc(Cl)cc2)nc(-c2ccccc2)cc1=O	Dose-dependent effect	10.9%	34.1%	12.2%	34.7%	Dose-dependent effect		
Cc1c(O)c2cc(C(C)(C)C)ccc2n(CC(C)C)c1=O	Dose-dependent effect	8.4%	23.6%	13.5%	32.5%	Dose-dependent effect		
